Data taken from ChEMBL document CHEMBL5390291, “Glutathione-responsive PROTAC for targeted degradation of ERα in breast cancer cells” (Bioorg Med Chem, 2023).
Calls of active or inactive are those of the source. The calls are words filed in the database; no cut-off is given here.

Columns and labels:
[1] = molecular target: T1, von Hippel-Lindau disease tumor suppressor/Estrogen receptor (Homo sapiens, UniProt P03372+P40337); test: PROTAC activity at VHL/ER-alpha in human MCF7 cells assessed as ERalpha degradation level at 10 uM pretreated with VHL-L followed by compound addition and measured after 6 hrs by Western blot analysis; assay type: cell-based
Target sequence in this assay (P03372 whole entry, looked up): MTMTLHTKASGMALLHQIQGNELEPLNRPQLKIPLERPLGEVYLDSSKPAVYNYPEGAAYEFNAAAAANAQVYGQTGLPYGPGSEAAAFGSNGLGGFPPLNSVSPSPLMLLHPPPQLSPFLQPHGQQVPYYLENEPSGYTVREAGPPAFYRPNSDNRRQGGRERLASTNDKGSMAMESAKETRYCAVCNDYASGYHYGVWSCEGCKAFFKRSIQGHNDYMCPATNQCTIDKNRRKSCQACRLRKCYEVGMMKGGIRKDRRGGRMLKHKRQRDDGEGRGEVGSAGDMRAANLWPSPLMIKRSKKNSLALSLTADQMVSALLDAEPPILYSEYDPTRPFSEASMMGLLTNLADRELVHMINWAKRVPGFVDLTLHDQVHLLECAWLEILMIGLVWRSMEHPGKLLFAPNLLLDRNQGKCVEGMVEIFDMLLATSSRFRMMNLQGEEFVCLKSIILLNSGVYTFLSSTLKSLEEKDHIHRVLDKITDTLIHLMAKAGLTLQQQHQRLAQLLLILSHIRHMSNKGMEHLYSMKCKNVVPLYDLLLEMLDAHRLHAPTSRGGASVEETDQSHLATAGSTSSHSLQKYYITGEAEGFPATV
Target sequence in this assay (P40337 whole entry, looked up): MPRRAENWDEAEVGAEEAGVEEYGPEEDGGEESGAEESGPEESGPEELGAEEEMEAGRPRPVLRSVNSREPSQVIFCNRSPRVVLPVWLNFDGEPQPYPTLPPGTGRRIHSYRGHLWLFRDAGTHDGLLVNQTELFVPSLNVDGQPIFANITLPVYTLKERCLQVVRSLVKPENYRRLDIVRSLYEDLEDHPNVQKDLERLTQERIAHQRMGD

[2] = molecular target: T1, von Hippel-Lindau disease tumor suppressor/Estrogen receptor; test: PROTAC activity at VHL/ER-alpha in human MCF7 cells assessed as ERalpha degradation at 0.5 uM incubated for 6 hrs by Western blot analysis relative to control; assay type: cell-based
Target sequence in this assay (P03372 whole entry, looked up): as the sequence (P03372 whole entry, looked up) above
Target sequence in this assay (P40337 whole entry, looked up): as the sequence (P40337 whole entry, looked up) above

[3] = molecular target: T1, von Hippel-Lindau disease tumor suppressor/Estrogen receptor; test: PROTAC activity at VHL/3 Flag-tagged ER-alpha in HBE cells assessed as ERalpha degradation at 0.5 to 10 uM incubated for 6 hr by western blot analysis; assay type: cell-based; details: dose 0.5-10 µM
Target sequence in this assay (P03372 whole entry, looked up): as the sequence (P03372 whole entry, looked up) above
Target sequence in this assay (P40337 whole entry, looked up): as the sequence (P40337 whole entry, looked up) above

BT-474 [4] = test: Antiproliferative activity against human BT-474 cells assessed as inhibition of cell growth at 10 uM incubated for 3 days by hemocytometer cell counting analysis; assay type: functional, cell-based; details: time 3.0 day
[5] = molecular target: T1, von Hippel-Lindau disease tumor suppressor/Estrogen receptor; test: PROTAC activity at VHL/GFP-tagged ER-alpha in human A549 cells assessed as ERalpha degradation by Western blot analysis; assay type: cell-based
Target sequence in this assay (P03372 whole entry, looked up): as the sequence (P03372 whole entry, looked up) above
Target sequence in this assay (P40337 whole entry, looked up): as the sequence (P40337 whole entry, looked up) above

BT-474 [6] = test: Antiproliferative activity against human SLC7A11 knockdown BT-474 cells assessed as inhibition of cell growth at 10 uM incubated after 2 days by hemocytometer cell counting analysis; assay type: functional, cell-based; details: time 2.0 day
[7] = molecular target: T1, von Hippel-Lindau disease tumor suppressor/Estrogen receptor; test: PROTAC activity at VHL/ER-alpha in human VHL knockdown MCF7 cells assessed as ERalpha degradation level at 10 uM incubated for 6 hrs by Western blot analysis; assay type: cell-based
Target sequence in this assay (P03372 whole entry, looked up): as the sequence (P03372 whole entry, looked up) above
Target sequence in this assay (P40337 whole entry, looked up): as the sequence (P40337 whole entry, looked up) above

[8] = molecular target: T1, von Hippel-Lindau disease tumor suppressor/Estrogen receptor; test: PROTAC activity at VHL/ER-alpha in human MCF7 cells assessed as ERalpha degradation level at 10 uM incubated 3 to 6 hrs in the presence of NEM by Western blot analysis; assay type: cell-based; details: time 3-6 hrs
Target sequence in this assay (P03372 whole entry, looked up): as the sequence (P03372 whole entry, looked up) above
Target sequence in this assay (P40337 whole entry, looked up): as the sequence (P40337 whole entry, looked up) above

[9] = Stability of compound in PBS buffer pH 7.4 at 0.1 mM incubated upto 48 hrs by HPLC analysis; assay type: physicochemical; details: pH 7.4, 48 h, 100 µM
[10] = Stability of compound in mouse plasma at 0.1 mM incubated for 8 hrs by HPLC analysis; assay type: ADME, cell-free; details: 100 µM
[11] = molecular target: T1, von Hippel-Lindau disease tumor suppressor/Estrogen receptor; test: PROTAC activity at VHL/ER-alpha in human MCF7 cells assessed as ERalpha degradation level at 10 uM by Western blot analysis; assay type: cell-based; details: time 3-6 hrs, TDE = time-dependent effect
[12] = molecular target: T1, von Hippel-Lindau disease tumor suppressor/Estrogen receptor; test: PROTAC activity at VHL/3 Flag-tagged ER-alpha in HBE cells assessed as ERalpha degradation incubated for 12 hrs by Western blot analysis; assay type: cell-based; details: dose 0.5-10 µM
[13] = molecular target: T1, von Hippel-Lindau disease tumor suppressor/Estrogen receptor; test: PROTAC activity at VHL/ER-alpha in human MCF7 cells assessed as ERalpha degradation level at 10 uM pretreated with tamoxifen followed by compound addition and measured after 6 hrs by Western blot analysis; assay type: cell-based
[14] = molecular target: T1, von Hippel-Lindau disease tumor suppressor/Estrogen receptor; test: PROTAC activity at VHL/3 Flag-tagged ER-alpha in human A549 cells assessed as ERalpha degradation incubated for 12 hrs by Western blot analysis; assay type: cell-based; details: dose 0.5-10 µM
[15] = molecular target: T1, von Hippel-Lindau disease tumor suppressor/Estrogen receptor; test: PROTAC activity at VHL/ER-alpha in human MCF7 cells assessed as ERalpha degradation at 10 uM incubated for 4 hrs by Western blot analysis; assay type: cell-based
[16] = molecular target: T1, von Hippel-Lindau disease tumor suppressor/Estrogen receptor; test: PROTAC activity at VHL/ER-alpha in human BT-474 cells assessed as ERalpha degradation by Western blot analysis; assay type: cell-based; details: TDE = time-dependent effect
MCF7 = test: Antiproliferative activity against human MCF7 cells assessed as inhibition of cell growth at 10 uM incubated for 9 days by hemocytometer cell counting analysis; assay type: functional, cell-based; details: time 9.0 day
[17] = molecular target: T1, von Hippel-Lindau disease tumor suppressor/Estrogen receptor; test: PROTAC activity at VHL/3 Flag-tagged ER-alpha in human NCI-H1299 cells assessed as ERalpha degradation incubated for 6 hrs by Western blot analysis; assay type: cell-based; details: dose 0.5-10 µM
[18] = molecular target: T1, von Hippel-Lindau disease tumor suppressor/Estrogen receptor; test: PROTAC activity at VHL/ER-alpha in human MCF7 cells assessed as ERalpha degradation incubated for 6 hrs by Western blot analysis; assay type: cell-based; details: dose 0.5-2 µM
[19] = molecular target: T1, von Hippel-Lindau disease tumor suppressor/Estrogen receptor; test: PROTAC activity at VHL/ER-alpha in human MCF7 cells assessed as ERalpha degradation at 10 uM incubated for 6 hrs by Western blot analysis; assay type: cell-based
[20] = molecular target: T1, von Hippel-Lindau disease tumor suppressor/Estrogen receptor; test: PROTAC activity at VHL/3 Flag-tagged ER-alpha in human NCI-H1299 cells assessed as ERalpha degradation incubated for 12 hrs by Western blot analysis; assay type: cell-based; details: dose 0.5-10 µM
BT-474 [21] = test: Antiproliferative activity against human GCLC knockdown BT-474 cells assessed as inhibition of cell growth at 10 uM incubated after 2 days by hemocytometer cell counting analysis; assay type: functional, cell-based; details: time 2.0 day
[22] = molecular target: T1, von Hippel-Lindau disease tumor suppressor/Estrogen receptor; test: PROTAC activity at VHL/ER-alpha in human MCF7 cells assessed as ERalpha degradation at 10 uM preincubated for 1 hr with MG132 followed by compound addition and measured after 6 hrs by Western blot analysis; assay type: cell-based
[23] = GSH reactivity of compound in water/acetonitrile solution assessed as release efficiency at 0.1 mM incubated for 48 hrs by HPLC analysis relative to control; assay type: physicochemical; details: buffer, 100 µM
[24] = molecular target: T1, von Hippel-Lindau disease tumor suppressor/Estrogen receptor; test: PROTAC activity at VHL/ER-alpha in human MCF7 cells assessed as ERalpha degradation incubated for 12 hrs by Western blot analysis; assay type: cell-based
[25] = molecular target: T1, von Hippel-Lindau disease tumor suppressor/Estrogen receptor; test: PROTAC activity at VHL/ER-alpha in human MCF7 cells assessed as ERalpha degradation at 2 uM incubated for 1 hr by Western blot analysis relative to control; assay type: cell-based

**Q.** What does the source list for CC/C(=C(\c1ccccc1)c1ccc(OCC(=O)NCCOCCOCC(=O)N[C@H](C(=O)N2C[C@H](OS(=O)(=O)c3ccccc3[N+](=O)[O-])C[C@H]2C(=O)NCc2ccc(-c3scnc3C)cc2)C(C)(C)C)cc1)c1ccccc1?
**A.** Activity [1]: inactive; Activity [2]: 50%; Activity [3]: Active; inhibition (BT-474 [4]): Active; Activity [5]: Active; inhibition (BT-474 [6]): inactive; Activity [7]: inactive; Activity [8]: inactive; Stability [9]: Stable; Stability [10]: Stable; Activity [11]: Tde; Activity [12]: Dose-Dependent Effect; Activity [13]: inactive; Activity [14]: Dose-Dependent Effect; Activity [15]: Active; Activity [16]: Tde; inhibition (MCF7): Active; Activity [17]: Dose-Dependent Effect; Activity [18]: Dose-Dependent Effect; Activity [19]: Active; Activity [20]: Dose-Dependent Effect; inhibition (BT-474 [21]): inactive; Activity [22]: inactive; Activity [23]: 70%

**Q.** For Cc1ncsc1-c1ccc(CNC(=O)[C@@H]2C[C@@H](O)CN2C(=O)[C@@H](NC(=O)COCCOCCNC(=O)COc2ccc(C(=O)c3c(-c4ccc(O)cc4)sc4cc(O)ccc34)cc2)C(C)(C)C)cc1, which DC50 [24] is on record?
**A.** Its DC50 is 188 nM.

**Q.** With CC/C(=C(\c1ccccc1)c1ccc(OCC(=O)NCCOCCOCC(=O)N[C@H](C(=O)N2C[C@H](O)C[C@H]2C(=O)NCc2ccc(-c3scnc3C)cc2)C(C)(C)C)cc1)c1ccccc1 as the molecule, how does the Activity [25] read?
**A.** Its Activity is 50%.

**Q.** What about the DC50 [24] of the same molecule?
**A.** Its DC50 is 56 nM.

**Q.** And the Activity ([24]; dose 0.002-2 µM)?
**A.** Its Activity is “Dose-Dependent Effect”.
